Where a name gives a salt, the structure may show the parent alone.
Tested on: prurigo nodularis patients
Experiment: TR03ext (Example 3): PAS prurigo lesions with excoriations/crusts; Stage 0 0%, Stage 1 1%-25%, Stage 2 26%-50%, Stage 3 51%-75%, Stage 4 76%-100%
Format: in vivo, human
From the text: In some embodiments, after the treatment the patient experiences a substantial reduction of itch that is characterized by at least one category/stage improvement in Prurigo Activity Score (PAS). In particular embodiments, after the treatment the patient experiences a reduction of itch that results in at least one category/stage improvement in Prurigo Activity Score (PAS) domains of number of prurigo lesions, prurigo lesions with excoriations/crusts and/or healed prurigo lesions. The PAS consists of 7 qualitative and quantitative measurements related to the examination of the skin. Type, number, distribution, affected body parts, and quantitative number of lesions in a representative body part are documented. The biggest lesion and the most representative lesion are monitored with documentation of height and area measurements. Prurigo lesion activity is recorded as a percentages based on their stage (0-4). In some embodiments, number measurements of lesions on the body have four numerical categories: 0, 1-19, 20-100 and >100. In some embodiments, prurigo lesions with excoriations/crusts have five categories: Stage 4 (76%-100%), Stage 3 (51%-75%), Stage 2 (26%-50%), Stage 1 (1-25%) and Stage 0 (0%). In some embodiments, healed prurigo lesions have five categories: Stage 4 (0-24%), Stage 3 (25-49%), Stage 2 (50-74%), Stage 1 (75%-99%), Stage 0 (100%).
This clinical study was a Phase 2 Open Label Extension Study (clinical study TR03ext) of the randomized, double-blind, 3-parallel arm, placebo controlled dose ranging study described in Example 2. All those subjects who were randomized, and then completed Example 2 study, were eligible to participate in the Extension Study.
The primary endpoint was a description of the overall incidence and nature of Treatment-Emergent AEs (TEAES) during weeks 5-50 of the study. Exploratory efficacy endpoints included Change from Baseline patient reported outcome measures of Worst itch NRS, itchy VRS and ItchyQoL, by Treatment Period study visit and Baseline NRS score. There was also an assessment of any potential skin lesion changes over time using the metrics of the PAS.
Patients in Extension Study were titrated over a dose range of 30 mg QD to 180 mg BID based on tolerability. The selected dose range was based on Example 2 study whereby patients were titrated from a 30 mg QD dose either to 30 mg BID, 60 mg BID, 90 mg BID, 120 mg BID or a 180 mg BID dose. The highest dose proposed was 180 mg BID (360 mg daily dose), and was well below the highest recommended daily treatment of 160 mg IV (equivalent to 960 mg oral) for the current marketed parenteral administered product.
Table 15, 16 and 17 display excoriations/crusts lesion PAS data for subjects who received treatment for at least 6 months, subjects who received treatment for at least 9 months and subjects who completed 50 weeks of treatment in the study, respectively. The status of the prurigo lesions with excoriations/crusts is reported as percentages based on their stage (0-4) using a grading system: Stage 0 (0% excoriations/crusts); Stage 1 (1%-25% excoriations/crusts); Stage 2 (26%-50% excoriations/crusts); Stage 3 (51%-75% excoriations/crusts); Stage 4: (76%-100% excoriations/crusts). Thus, the higher the stage, the more severe is the prurigo skin pathology.

[1] = treatment for at least 6 months
[2] = treatment for at least 9 months

## Oc1ccc2c3c1OC1[C@@H](O)CC[C@@]4(O)[C@@H](C2)N(CC2CCC2)CC[C@]314 (stereo partly drawn) [Nalbuphine, 17-(cyclobutylmethyl)-4,5α-epoxymorphinian-3, 6α, 14-triol, hydrochloride]
After 6 months, 13/16
  Subjects with at least one category improvement (lesser stage) in the percentage of excoriations/crust lesions (PAS): 81.2%
After 9 months, 9/13
  Subjects with at least one category improvement (lesser stage) in the percentage of excoriations/crust lesions (PAS): 69.2%
After 12 months, 8/12
  Subjects with at least one category improvement (lesser stage) in the percentage of excoriations/crust lesions (PAS): 66.6%
Treatment for 50 weeks
  Excoriated/Crusts PAS Category Shift: Baseline Stage 0 to Last Observed Stage 0: 1 (7.1%) Number (%) of Subjects
  Excoriated/Crusts PAS Category Shift: Baseline Stage 0 to Last Observed Stage 1: 0 Number (%) of Subjects
  Excoriated/Crusts PAS Category Shift: Baseline Stage 0 to Last Observed Stage 2: 0 Number (%) of Subjects
  Excoriated/Crusts PAS Category Shift: Baseline Stage 0 to Last Observed Stage 3: 0 Number (%) of Subjects
  Excoriated/Crusts PAS Category Shift: Baseline Stage 0 to Last Observed Stage 4: 0 Number (%) of Subjects
  Excoriated/Crusts PAS Category Shift: Baseline Stage 1 to Last Observed Stage 0: 0 Number (%) of Subjects
  Excoriated/Crusts PAS Category Shift: Baseline Stage 1 to Last Observed Stage 1: 1 (7.7%) Number (%) of Subjects
  Excoriated/Crusts PAS Category Shift: Baseline Stage 1 to Last Observed Stage 2: 0 Number (%) of Subjects
  Excoriated/Crusts PAS Category Shift: Baseline Stage 1 to Last Observed Stage 3: 0 Number (%) of Subjects
  Excoriated/Crusts PAS Category Shift: Baseline Stage 1 to Last Observed Stage 4: 1 (7.7%) Number (%) of Subjects
  Excoriated/Crusts PAS Category Shift: Baseline Stage 2 to Last Observed Stage 0: 0 Number (%) of Subjects
  Excoriated/Crusts PAS Category Shift: Baseline Stage 2 to Last Observed Stage 1: 5 (38.5%) Number (%) of Subjects
  Excoriated/Crusts PAS Category Shift: Baseline Stage 2 to Last Observed Stage 2: 0 Number (%) of Subjects
  Excoriated/Crusts PAS Category Shift: Baseline Stage 2 to Last Observed Stage 3: 0 Number (%) of Subjects
  Excoriated/Crusts PAS Category Shift: Baseline Stage 2 to Last Observed Stage 4: 0 Number (%) of Subjects
  Excoriated/Crusts PAS Category Shift: Baseline Stage 3 to Last Observed Stage 0: 0 Number (%) of Subjects
  Excoriated/Crusts PAS Category Shift: Baseline Stage 3 to Last Observed Stage 1: 0 Number (%) of Subjects
  Excoriated/Crusts PAS Category Shift: Baseline Stage 3 to Last Observed Stage 2: 2 (15.4%) Number (%) of Subjects
  Excoriated/Crusts PAS Category Shift: Baseline Stage 3 to Last Observed Stage 3: 1 (7.7%) Number (%) of Subjects
  Excoriated/Crusts PAS Category Shift: Baseline Stage 3 to Last Observed Stage 4: 0 Number (%) of Subjects
  Excoriated/Crusts PAS Category Shift: Baseline Stage 4 to Last Observed Stage 0: 1 (7.7%) Number (%) of Subjects
  Excoriated/Crusts PAS Category Shift: Baseline Stage 4 to Last Observed Stage 1: 0 Number (%) of Subjects
  Excoriated/Crusts PAS Category Shift: Baseline Stage 4 to Last Observed Stage 2: 0 Number (%) of Subjects
  Excoriated/Crusts PAS Category Shift: Baseline Stage 4 to Last Observed Stage 3: 0 Number (%) of Subjects
  Excoriated/Crusts PAS Category Shift: Baseline Stage 4 to Last Observed Stage 4: 1 (7.7%) Number (%) of Subjects
  Excoriated/Crusts PAS: Last Observed PAS Result Stage 0: 2 (15.4) Number (%) of Subjects
  Excoriated/Crusts PAS: Last Observed PAS Result Stage 1: 6 (46.2) Number (%) of Subjects
  Excoriated/Crusts PAS: Last Observed PAS Result Stage 2: 2 (15.4) Number (%) of Subjects
  Excoriated/Crusts PAS: Last Observed PAS Result Stage 3: 1 (7.7) Number (%) of Subjects
  Excoriated/Crusts PAS: Last Observed PAS Result Stage 4: 2 (15.4) Number (%) of Subjects
[1]
  Excoriated/Crusts PAS Category Shift: Baseline Stage 0 to Last Observed Stage 0: 1 (5.9%) Number (%) of Subjects
  Excoriated/Crusts PAS Category Shift: Baseline Stage 0 to Last Observed Stage 1: 0 Number (%) of Subjects
  Excoriated/Crusts PAS Category Shift: Baseline Stage 0 to Last Observed Stage 2: 0 Number (%) of Subjects
  Excoriated/Crusts PAS Category Shift: Baseline Stage 0 to Last Observed Stage 3: 0 Number (%) of Subjects
  Excoriated/Crusts PAS Category Shift: Baseline Stage 0 to Last Observed Stage 4: 0 Number (%) of Subjects
  Excoriated/Crusts PAS Category Shift: Baseline Stage 1 to Last Observed Stage 0: 0 Number (%) of Subjects
  Excoriated/Crusts PAS Category Shift: Baseline Stage 1 to Last Observed Stage 1: 1 (5.9%) Number (%) of Subjects
  Excoriated/Crusts PAS Category Shift: Baseline Stage 1 to Last Observed Stage 2: 0 Number (%) of Subjects
  Excoriated/Crusts PAS Category Shift: Baseline Stage 1 to Last Observed Stage 3: 0 Number (%) of Subjects
  Excoriated/Crusts PAS Category Shift: Baseline Stage 1 to Last Observed Stage 4: 1 (5.9%) Number (%) of Subjects
  Excoriated/Crusts PAS Category Shift: Baseline Stage 2 to Last Observed Stage 0: 1 (5.9%) Number (%) of Subjects
  Excoriated/Crusts PAS Category Shift: Baseline Stage 2 to Last Observed Stage 1: 5 (29.4%) Number (%) of Subjects
  Excoriated/Crusts PAS Category Shift: Baseline Stage 2 to Last Observed Stage 2: 0 Number (%) of Subjects
  Excoriated/Crusts PAS Category Shift: Baseline Stage 2 to Last Observed Stage 3: 0 Number (%) of Subjects
  Excoriated/Crusts PAS Category Shift: Baseline Stage 2 to Last Observed Stage 4: 0 Number (%) of Subjects
  Excoriated/Crusts PAS Category Shift: Baseline Stage 3 to Last Observed Stage 0: 0 Number (%) of Subjects
  Excoriated/Crusts PAS Category Shift: Baseline Stage 3 to Last Observed Stage 1: 1 (5.9%) Number (%) of Subjects
  Excoriated/Crusts PAS Category Shift: Baseline Stage 3 to Last Observed Stage 2: 2 (11.8%) Number (%) of Subjects
  Excoriated/Crusts PAS Category Shift: Baseline Stage 3 to Last Observed Stage 3: 1 (5.9%) Number (%) of Subjects
  Excoriated/Crusts PAS Category Shift: Baseline Stage 3 to Last Observed Stage 4: 0 Number (%) of Subjects
  Excoriated/Crusts PAS Category Shift: Baseline Stage 4 to Last Observed Stage 0: 1 (5.9%) Number (%) of Subjects
  Excoriated/Crusts PAS Category Shift: Baseline Stage 4 to Last Observed Stage 1: 2 (11.8%) Number (%) of Subjects
  Excoriated/Crusts PAS Category Shift: Baseline Stage 4 to Last Observed Stage 2: 0 Number (%) of Subjects
  Excoriated/Crusts PAS Category Shift: Baseline Stage 4 to Last Observed Stage 3: 0 Number (%) of Subjects
  Excoriated/Crusts PAS Category Shift: Baseline Stage 4 to Last Observed Stage 4: 1 (5.9%) Number (%) of Subjects
  Excoriated/Crusts PAS: Last Observed PAS Result Stage 0: 3 (17.6) Number (%) of Subjects
  Excoriated/Crusts PAS: Last Observed PAS Result Stage 1: 9 (52.9) Number (%) of Subjects
  Excoriated/Crusts PAS: Last Observed PAS Result Stage 2: 2 (11.8) Number (%) of Subjects
  Excoriated/Crusts PAS: Last Observed PAS Result Stage 3: 1 (5.9) Number (%) of Subjects
  Excoriated/Crusts PAS: Last Observed PAS Result Stage 4: 2 (11.8) Number (%) of Subjects
[2]
  Excoriated/Crusts PAS Category Shift: Baseline Stage 0 to Last Observed Stage 0: 1 (7.1%) Number (%) of Subjects
  Excoriated/Crusts PAS Category Shift: Baseline Stage 0 to Last Observed Stage 1: 0 Number (%) of Subjects
  Excoriated/Crusts PAS Category Shift: Baseline Stage 0 to Last Observed Stage 2: 0 Number (%) of Subjects
  Excoriated/Crusts PAS Category Shift: Baseline Stage 0 to Last Observed Stage 3: 0 Number (%) of Subjects
  Excoriated/Crusts PAS Category Shift: Baseline Stage 0 to Last Observed Stage 4: 0 Number (%) of Subjects
  Excoriated/Crusts PAS Category Shift: Baseline Stage 1 to Last Observed Stage 0: 0 Number (%) of Subjects
  Excoriated/Crusts PAS Category Shift: Baseline Stage 1 to Last Observed Stage 1: 1 (7.1%) Number (%) of Subjects
  Excoriated/Crusts PAS Category Shift: Baseline Stage 1 to Last Observed Stage 2: 0 Number (%) of Subjects
  Excoriated/Crusts PAS Category Shift: Baseline Stage 1 to Last Observed Stage 3: 0 Number (%) of Subjects
  Excoriated/Crusts PAS Category Shift: Baseline Stage 1 to Last Observed Stage 4: 1 (7.1%) Number (%) of Subjects
  Excoriated/Crusts PAS Category Shift: Baseline Stage 2 to Last Observed Stage 0: 0 Number (%) of Subjects
  Excoriated/Crusts PAS Category Shift: Baseline Stage 2 to Last Observed Stage 1: 5 (35.7%) Number (%) of Subjects
  Excoriated/Crusts PAS Category Shift: Baseline Stage 2 to Last Observed Stage 2: 0 Number (%) of Subjects
  Excoriated/Crusts PAS Category Shift: Baseline Stage 2 to Last Observed Stage 3: 0 Number (%) of Subjects
  Excoriated/Crusts PAS Category Shift: Baseline Stage 2 to Last Observed Stage 4: 0 Number (%) of Subjects
  Excoriated/Crusts PAS Category Shift: Baseline Stage 3 to Last Observed Stage 0: 0 Number (%) of Subjects
  Excoriated/Crusts PAS Category Shift: Baseline Stage 3 to Last Observed Stage 1: 0 Number (%) of Subjects
  Excoriated/Crusts PAS Category Shift: Baseline Stage 3 to Last Observed Stage 2: 2 (14.3%) Number (%) of Subjects
  Excoriated/Crusts PAS Category Shift: Baseline Stage 3 to Last Observed Stage 3: 1 (7.1%) Number (%) of Subjects
  Excoriated/Crusts PAS Category Shift: Baseline Stage 3 to Last Observed Stage 4: 0 Number (%) of Subjects
  Excoriated/Crusts PAS Category Shift: Baseline Stage 4 to Last Observed Stage 0: 1 (7.1%) Number (%) of Subjects
  Excoriated/Crusts PAS Category Shift: Baseline Stage 4 to Last Observed Stage 1: 1 (7.1%) Number (%) of Subjects
  Excoriated/Crusts PAS Category Shift: Baseline Stage 4 to Last Observed Stage 2: 0 Number (%) of Subjects
  Excoriated/Crusts PAS Category Shift: Baseline Stage 4 to Last Observed Stage 3: 0 Number (%) of Subjects
  Excoriated/Crusts PAS Category Shift: Baseline Stage 4 to Last Observed Stage 4: 1 (7.1%) Number (%) of Subjects
  Excoriated/Crusts PAS: Last Observed PAS Result Stage 0: 2 (14.3) Number (%) of Subjects
  Excoriated/Crusts PAS: Last Observed PAS Result Stage 1: 7 (50.0) Number (%) of Subjects
  Excoriated/Crusts PAS: Last Observed PAS Result Stage 2: 2 (14.3) Number (%) of Subjects
  Excoriated/Crusts PAS: Last Observed PAS Result Stage 3: 1 (7.1) Number (%) of Subjects
  Excoriated/Crusts PAS: Last Observed PAS Result Stage 4: 2 (14.3) Number (%) of Subjects
